Tests used:
Format in all cases: in vivo
[1] = test system: Housefly [Musca domestica]; assay: Housefly contact mortality in dishes (HF), 48 hours; settings: μg of test compound per 25 female flies
In short: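 Acetone solutions (with 0.01% peanut oil) dried onto dish bottoms, then 25 female flies, 1-2 days old, caged over the residue with sugar water. Mortality scored at 48 hours; LC50 from dosage-mortality curves, in μg per 25 female flies, top level 100 μg.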

[2] = test system: Black Bean Aphid [Aphis fabae (Scop.)]; assay: Black bean aphid spray test on nasturtium (BBA), 48 hours; settings: percent of test compound in sprayed solution
In short: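 LC50, given as percent test compound in the sprayed liquid, was calculated from dosage-mortality curves using concentrations from 0.05% downward. Sprays in 50:50 acetone-water went to runoff on ~5 cm nasturtiums carrying 25-50 aphids of mixed ages, one day after infestation. Deaths were counted 48 h later under greenhouse conditions.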

[3] = test system: Cabbage Looper [Trichoplusia ni (Hubner)]; assay: Cabbage looper leaf dip (CL), 3-5 days; settings: percent in solution, second-instar larvae
In short: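 LC50, as percent test compound in solution, derived from dosage-mortality curves; concentrations started at 0.1% and went lower. Five second-instar larvae per dish fed on acetone-water-dipped, dried squash cotyledons in a humid chamber. Deaths recorded 3-5 days post-infestation.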

[4] = test system: Tobacco Budworm [Heliothis virescens (Fabricius)] eggs; assay: Tobacco budworm eggs (TBW-E); settings: percent in solution; 2-day old eggs
In short: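 LC50 is given as percent compound in the dipping solution, fitted from dosage-mortality curves. Two-day-old eggs on paper towel were dipped in acetone solutions (top concentration 0.1%), kept at 78° F on rearing medium, and scored after control hatch and larval feeding.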

[5] = test system: Tobacco Budworm [Heliothis virescens (Fabricius)] larvae; assay: Tobacco budworm larvae, contact (TBW-C), 5 days; settings: percent in solution, second-instar larvae
Description: The compounds in Tables 1 and 2 above were tested for insecticidal activity using the following testing procedures. LC50 values, based on the results of these tests and calculated according to dosage-mortality curves, are expressed in Table 3.
Tobacco Budworm [Heliothis virescens (Fabricius)]:
(a) Contact: Test compounds were diluted in a 50-50 acetone-water solution. Cotton (Gossypium sp.) cotyledons were immersed in the test solutions for 2-3 seconds and placed on a wire screen to dry. The dried leaves were placed in petri dishes containing a moistened piece of filter paper and infested with 5 second-instar tobacco budworm larvae. The dishes were placed in a high humidity chamber for 5 days, and percent mortality of the larvae recorded. Test concentrations ranged from 0.1% downward. The LC-50 values are expressed below in Table 3 under the heading "TBW-C" in terms of percent of the test compound in the solution.

[6] = test system: Aster Leafhopper [Macrosteles fascifrens (Stal)]; assay: Aster leafhopper on dipped oat seedlings (LH), 48 hours; settings: percent in solution, adults/nymphs
In short: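 Three ~10 cm oat seedlings per cup were dipped 2-3 seconds in 50-50 acetone-water compound solutions, dried, and caged with ten adult/nymph leafhoppers. Mortality was counted after 48 hours at concentrations from 0.05% downward. LC50, as percent compound in solution, came from dosage-mortality curves.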

[7] = test system: Maize weevil [Sitophilus zeamais (Motschulsky)]; assay: Maize weevil on dipped corn seeds (MW), 48 hours; settings: percent in solution, adult weevils
In short: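 LC50, given as percent of compound in dipping solution, comes from dosage-mortality curves over concentrations descending from 0.01%. Four corn seeds soaked 2-3 s in 50:50 acetone:water solution were dried and held with 10 adult weevils, about 25° C, mortality read after 48 h.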

| SMILES | LC50 HF [1] | LC50 BBA [2] | LC50 CL [3] | LC50 TBW E (eggs) [4] | LC50 TBW C (contact) [5] | LC50 LH [6] | LC50 MW [7] |
| --- | --- | --- | --- | --- | --- | --- | --- |
| COc1ccc(N=C(OCc2cccc(Oc3ccccc3)c2)C(C)C)c(OC)c1 [Compound 146] | 40 µg | 0.05% | 0.017% | > 0.1% | 0.025% |  |  |
| CC(=O)c1ccc(N=C(OCc2cccc(Oc3ccccc3)c2)C(C)C)cc1 [Compound 147] | 10 µg | 0.03% | 0.01% | > 0.1% | 0.0075% |  |  |
| CC(C)C(=Nc1cccc(Cl)c1)OCc1cccc(Oc2ccc(F)cc2)c1 [Compound 194] | 10 µg | 0.001% | 0.0005% | 0.04% | 0.0017% | 0.0005% | > 0.01% |
| CC(C)C(=Nc1ccc(F)c(Cl)c1)OCc1cccc(Oc2ccc(C#N)cc2)c1 [Compound 196] | 17 µg |  | 0.0006% | > 0.1% | 0.001% | > 0.05% | > 0.01% |
| CC(C)C(=Nc1cc(F)cc(F)c1)OCc1cccc(Oc2ccc(F)cc2)c1 [Compound 199] | 8 µg |  | 0.0006% | > 0.1% | 0.003% |  | > 0.01% |
| CC(C)C(=Nc1cccc(C(F)(F)F)c1)OCc1cccc(Oc2ccc(F)cc2)c1 [Compound 202] | 18 µg | 0.003% | 0.00024% | > 0.1% | 0.0007% | 0.0003% | > 0.01% |
| CC(C)(C)C(=Nc1ccc(F)c(Cl)c1)OCc1cccc(Oc2ccc(F)cc2)c1 [Compound 204] | > 100 µg |  | 0.0023% | > 0.1% | 0.004% |  | > 0.01% |
| CC(C)C(=Nc1ccc(F)cc1F)OCc1cccc(Oc2ccc(F)cc2)c1 [Compound 209] | 17 µg | 0.01% | 0.0007% | 0.1% | 0.005% | 0.001% | > 0.01% |
| CCC(C)C(=Nc1ccc(F)c(Cl)c1)OCc1cccc(Oc2ccc(F)cc2)c1 (centres unmarked) [Compound 210] | 35 µg | 0.01% | 0.00028% | 0.045% | 0.0015% |  | > 0.01% |
| CC(C)C(=Nc1ccc2c(c1)OC(C)(C)O2)OCc1cccc(Oc2ccc(F)cc2)c1 [Compound 219] | 50 µg | 0.003% | 0.00025% | 0.027% | 0.004% |  | > 0.01% |
| CC(C)C(=Nc1ccc(Br)cc1)OCc1cccc(Oc2ccc(F)cc2)c1 [Compound 226] | 16 µg | 0.01% | 0.0005% | 0.1% | 0.001% | 0.002% | 0.009% |
| CC(C)C(=Nc1cccc(C(F)(F)F)c1)OCc1ccc(F)c(Oc2ccc(Cl)cc2)c1 [Compound 266] | 10 µg | > 0.05% | 0.00016% | 0.06% | 0.0007% |  |  |
| CC(C)C(=Nc1ccc(F)c(C(F)(F)F)c1)OCc1ccc(F)c(Oc2ccc(Cl)cc2)c1 [Compound 297] | 23 µg |  | 0.00027% | 0.025% | 0.00075% | 0.0001% | 0.0071% |
| C=C(C)C(=Nc1ccc(C(F)(F)F)cc1)OCc1ccc(F)c(Oc2ccc(Cl)cc2)c1 [Compound 432] | < 100 µg | 0.001% | 0.0012% | 0.032% | < 0.1% |  | > 0.01% |
